We go through 33 molecules from patent US12011444B2, “N-substituted indole derivatives as PGE2 receptor modulators” (Idorsia Pharmaceuticals Ltd, priority 2015, dated 2024).

Assay [1] addresses PTGER2 (EP2) (Homo sapiens (Human), UniProt P43116). The assay can be described thus: hEP2 b-arrestin assay (PathHunter HEK 293 PTGER2 b-arrestin cells). It is filed as cell-based. The essentials:
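Readout is β-galactosidase complementation luminescence, expressed as percent of DMSO control (duplicates). PathHunter HEK293 EP2/β-arrestin 2 cells, grown 24 h, received compound for 15 min at 37 °C before a 120 min challenge with PGE2 at 5 μM final, followed by 1 h detection at room temperature.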

Assay [2] has as its target PTRGER4 (EP4) (Homo sapiens (Human), UniProt P35408). The assay can be described thus: hEP4 b-arrestin assay (PathHunter HEK 293 PTGER4 b-arrestin cells). It counts as cell-based. The essentials:
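Antagonist mode: compound is given 15 min at 37 °C, then 20 nM (final) PGE2 for 120 min, in HEK293 cells stably expressing EP4 fused to ProLink and β-arrestin 2 fused to EA. Recruitment read as β-gal luminescence after 1 h reagent at room temperature, as percent of DMSO control.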

[3] abbreviates: antagonistic activity on hEP2, mean where measured multiple times.
The mark [4] stands for this setting: antagonistic activity on hEP4, mean where measured multiple times.
The mark [5] stands for this setting: hEP2 b-arrestin assay (values without asterisk).
The mark [6] stands for this setting: hEP4 b-arrestin assay (values without asterisk).

For orientation: IC50 means the concentration needed to halve the response being measured. A high value points to weaker potency in that assay.

Sequence of PTRGER4 (EP4) (P35408 whole entry, looked up, the tested form may be a part): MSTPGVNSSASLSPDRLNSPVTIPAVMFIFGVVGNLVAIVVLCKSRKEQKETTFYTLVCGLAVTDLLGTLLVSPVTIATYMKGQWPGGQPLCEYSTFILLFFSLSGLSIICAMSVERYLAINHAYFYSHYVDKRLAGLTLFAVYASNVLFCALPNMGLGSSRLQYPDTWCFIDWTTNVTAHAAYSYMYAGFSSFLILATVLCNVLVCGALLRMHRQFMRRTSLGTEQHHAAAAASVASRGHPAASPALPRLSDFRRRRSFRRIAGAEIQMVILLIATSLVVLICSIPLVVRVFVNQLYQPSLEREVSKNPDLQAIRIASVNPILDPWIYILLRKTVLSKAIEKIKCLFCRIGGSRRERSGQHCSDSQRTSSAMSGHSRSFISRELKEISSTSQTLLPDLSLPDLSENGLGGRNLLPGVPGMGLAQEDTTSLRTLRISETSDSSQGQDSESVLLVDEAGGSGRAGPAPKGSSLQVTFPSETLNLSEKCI
Sequence of PTGER2 (EP2) (P43116 whole entry): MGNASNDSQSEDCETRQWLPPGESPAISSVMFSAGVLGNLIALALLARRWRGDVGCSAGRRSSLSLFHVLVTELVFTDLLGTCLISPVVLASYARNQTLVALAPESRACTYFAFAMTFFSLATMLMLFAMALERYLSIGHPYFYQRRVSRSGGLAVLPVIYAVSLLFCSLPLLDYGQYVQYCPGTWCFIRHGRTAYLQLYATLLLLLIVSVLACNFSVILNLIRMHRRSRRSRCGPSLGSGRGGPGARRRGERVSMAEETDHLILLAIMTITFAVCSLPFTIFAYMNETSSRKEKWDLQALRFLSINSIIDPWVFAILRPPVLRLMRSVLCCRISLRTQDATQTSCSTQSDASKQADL

`CCOc1cc(-c2cc(NCCn3c(C)cc4c(OC)ccc(Cl)c43)ncn2)sc1C(=O)O` [compound 256]: the half-maximal inhibitory concentration (IC50) amounted to 3 nM in assay [1] (setting [3]) and 29 nM in assay [2] (setting [4]).
Consider `COc1ccc(Cl)c2c1cc(C)n2CCNc1cc(-c2cc(F)c(C(=O)O)s2)ncn1` [compound 111], for which the IC50 in assay [1] (setting [3]) was found to be 31 nM; in assay [2] (setting [4]), 166 nM.
Consider `[2H]C([2H])(Nc1cc(-c2cc(Cl)c(C(=O)O)c(OCCCC)c2)ncn1)C([2H])([2H])n1c(C)cc2c(OC)ccc(F)c21` [Example 836, 2-butoxy-6-chloro-4-(6-((2-(7-fluoro-4-methoxy-2-methyl-1H-indol-1-yl)ethyl-1,1,2,2-d4)amino)pyrimidin-4-yl)benzoic acid], for which the IC50 in assay [1] (setting [5]) stood at 7 nM; in assay [2] (setting [6]), 32 nM.
For `Cc1cc(-c2cc(NCCn3c(C)cc4c(C)ccc(F)c43)ncn2)sc1C(=O)O` [compound 45], the half-maximal inhibitory concentration (IC50) in assay [1] (setting [3]) was found to be 14 nM; in assay [2] (setting [4]), 75 nM.
In the case of `Cc1ccc(F)c2c1cc(C)n2CCNc1cc(-c2cc(F)c(S(N)(=O)=O)c(F)c2)ncn1` [compound 166], the IC50 in assay [1] (setting [3]) came to 131 nM; in assay [2] (setting [4]), 733 nM.
Taken in the same sequence, the figures for `Cc1cc(F)cc2c1cc(C)n2CCNc1cc(-c2ccc3c(C(=O)O)n[nH]c3c2)ncn1` [compound 183, 6-{6-[2-(6-Fluoro-2,4-dimethyl-indol-1-yl)-ethylamino]-pyrimidin-4-yl}-1H-indazole-3-carboxylic acid] were 49 nM and 637 nM.
As to `N#Cc1c(F)c2ccccc2n1CCNc1cc(-c2cc(C(F)(F)F)c(C(=O)O)s2)ncn1` [Example 840, 5-{6-[2-(2-Cyano-3-fluoro-indol-1-yl)-ethylamino]-pyrimidin-4-yl}-3-trifluoromethyl-thiophene-2-carboxylic acid], the IC50 in assay [1] (setting [5]) came to 48 nM; in assay [2] (setting [6]) it was 47 nM.
Turning to `CCOc1cc(-c2cc(NCCn3c(C)cc4c(OC)ccc(F)c43)ncn2)ccc1OCC(=O)O` [Example 810, (2-Ethoxy-4-{6-[2-(7-fluoro-4-methoxy-2-methyl-indol-1-yl)-ethylamino]-pyrimidin-4-yl}-phenoxy)-acetic acid], the IC50 in assay [1] (setting [5]) turned out to be 9 nM; in assay [2] (setting [6]), 28 nM.
For `CCOc1cc(-c2cc(NCCn3c(C)cc4c(C)cc(Cl)cc43)ncn2)sc1C(=O)O` [compound 224], the IC50 was 4 nM in assay [1] (setting [3]) and 20 nM in assay [2] (setting [4]).
`COc1ccc(F)c2c1cc(C#N)n2CCNc1cc(-c2cc(F)c(C(=O)O)s2)ncn1` [Example 806, 5-{6-[2-(2-Cyano-7-fluoro-4-methoxy-indol-1-yl)-ethylamino]-pyrimidin-4-yl}-3-fluoro-thiophene-2-carboxylic acid]: the half-maximal inhibitory concentration (IC50) in assay [1] (setting [5]) is 7 nM; in assay [2] (setting [6]), 10 nM.
With `CCCOc1cc(-c2cc(NCCn3c(C#N)cc4c(OC)ccc(F)c43)ncn2)ccc1CC(=O)O` [Example 833, (4-{6-[2-(2-Cyano-7-fluoro-4-methoxy-indol-1-yl)-ethylamino]-pyrimidin-4-yl}-2-propoxy-phenyl)-acetic acid], the IC50 in assay [1] (setting [5]) amounted to 62 nM; in assay [2] (setting [6]) it was 27 nM.
In the case of `COc1ccc(F)c2c1cc(C#N)n2CCNc1cc(-c2ccc3oc(=O)n(C)c3c2)ncn1` [Example 973, 7-Fluoro-4-methoxy-1-{2-[6-(3-methyl-2-oxo-2,3-dihydro-benzooxazol-5-yl)-pyrimidin-4-ylamino]-ethyl}-1H-indole-2-carbonitrile], the results for the half-inhibitory concentration (IC50) in assay [1] (setting [5]) and in assay [2] (setting [6]) were 15 nM and 49 nM, respectively.
For the molecule `CCOc1cc(-c2cc(NCCn3c(C#N)cc4c(C)c(F)cc(F)c43)ncn2)sc1C(=O)O` [Example 940, 5-{6-[2-(2-Cyano-5,7-difluoro-4-methyl-indol-1-yl)-ethylamino]-pyrimidin-4-yl}-3-ethoxy-thiophene-2-carboxylic acid], the half-inhibitory concentration (IC50) came to 10 nM in assay [1] (setting [5]) and 3 nM in assay [2] (setting [6]).
For `Cc1ccc(F)c2c1cc(C)n2CCNc1cc(-c2ccc(-c3ccn[nH]3)cc2)ncn1` [compound 70, [2-(7-Fluoro-2,4-dimethyl-indol-1-yl)-ethyl]-{6-[4-(2H-pyrazol-3-yl)-phenyl]-pyrimidin-4-yl}-amine], the IC50 in assay [1] (setting [3]) was found to be 33 nM; in assay [2] (setting [4]), 145 nM.
For `COc1ccc(F)c2c1cc(C)n2CCNc1cc(-c2nc(CC(C)C)c(C(=O)O)s2)ncn1` [Example 1036, 2-{6-[2-(7-Fluoro-4-methoxy-2-methyl-indol-1-yl)-ethylamino]-pyrimidin-4-yl}-4-isobutyl-thiazole-5-carboxylic acid], the IC50 came to 24 nM in assay [1] (setting [5]) and 20 nM in assay [2] (setting [6]).
Take `CCOc1c(C(=O)O)ccc(-c2cc(NCCn3c(C#N)cc4c(OC)ccc(F)c43)ncn2)c1F` [Example 928, 4-{6-[2-(2-Cyano-7-fluoro-4-methoxy-indol-1-yl)-ethylamino]-pyrimidin-4-yl}-2-ethoxy-3-fluoro-benzoic acid]: the IC50 stood at 37 nM in assay [1] (setting [5]) and 45 nM in assay [2] (setting [6]).
As to `Cc1cc(Cl)cc2c1cc(C)n2CCNc1cc(-c2ccc(C(=O)O)c(OC(F)F)c2)ncn1` [compound 349, 4-{6-[2-(6-Chloro-2,4-dimethyl-indol-1-yl)-ethylamino]-pyrimidin-4-yl}-2-difluoromethoxy-benzoic acid], the IC50 in assay [1] (setting [3]) amounted to 26 nM; in assay [2] (setting [4]) it was 301 nM.
As for `CCCc1cc(-c2cc(NCCn3c(C)cc4c(C)cccc43)ncn2)ccc1C(=O)O` [compound 120, 4-{6-[2-(2,4-Dimethyl-indol-1-yl)-ethylamino]-pyrimidin-4-yl}-2-propyl-benzoic acid], the concentration for half-maximal inhibition (IC50) was 6 nM in assay [1] (setting [3]) and 495 nM in assay [2] (setting [4]).
With `CCOc1cc(-c2cc(NCCn3c(C)cc4c(OC)ccc(F)c43)ncn2)cc(C)c1C(=O)O` [compound 366, 2-Ethoxy-4-{6-[2-(7-fluoro-4-methoxy-2-methyl-indol-1-yl)-ethylamino]-pyrimidin-4-yl}-6-methyl-benzoic acid], the figures for the half-maximal inhibitory concentration (IC50) in assay [1] (setting [3]) and in assay [2] (setting [4]) were 22 nM and 262 nM, respectively.
Consider `CNc1nnc(-c2ccc(-c3cc(NCCn4c(C)cc5ccccc54)ncn3)cc2)s1` [compound 387], for which the IC50 came out at 2 nM in assay [1] (setting [3]) and 556 nM in assay [2] (setting [4]).
The like results for `CCNC(=O)Nc1ccc(-c2cc(NCCn3c(C)cc4c(C)ccc(F)c43)ncn2)cc1OC` [compound 374] were, in that order, 53 nM and 67 nM.
As to “5-{6-[2-(6-Fluoro-4-methoxy-2-methyl-indol-1-yl)-ethylamino]-pyrimidin-4-yl}-thiophen-3-ol [Example 801]”, the half-inhibitory concentration (IC50) was determined as 20 nM in assay [1] (setting [5]) and 139 nM in assay [2] (setting [6]).
Consider `CCc1cc(-c2cc(NCCn3c(C)cc4c(C)cc(F)cc43)ncn2)sc1C(=O)O` [compound 104], for which the figures for the half-inhibitory concentration (IC50) in assay [1] (setting [3]) and in assay [2] (setting [4]) were 24 nM and 44 nM, respectively.
With `CCOc1cc(-c2cc(NCCn3c(C)cc4c(C)cc(F)cc43)ncn2)sc1C(=O)O` [compound 229], the half-maximal inhibitory concentration (IC50) in assay [1] (setting [3]) worked out at 2 nM; in assay [2] (setting [4]), 26 nM.
As for `CCNc1csc(-c2cc(NCCn3c(C)cc4c(C)ccc(F)c43)ncn2)c1` [Example 1068, [6-(4-Ethylamino-thiophen-2-yl)-pyrimidin-4-yl]-[2-(7-fluoro-2,4-dimethyl-indol-1-yl)-ethyl]-amine], the 50% inhibitory concentration (IC50) in assay [1] (setting [5]) was determined as 10 nM; in assay [2] (setting [6]), 15 nM.
For the molecule `CCSc1cc(-c2cc(NCCn3c(C#N)cc4c(C)ccc(F)c43)ncn2)ccc1C(=O)O` [Example 951, 4-{6-[2-(2-Cyano-7-fluoro-4-methyl-indol-1-yl)-ethylamino]-pyrimidin-4-yl}-2-ethylsulfanyl-benzoic acid], the IC50 in assay [1] (setting [5]) amounted to 15 nM; in assay [2] (setting [6]) it was 27 nM.
Taken in the same sequence, the figures for `CCOc1cc(-c2cc(NCCn3c(C)cc4c(OC)ccc(F)c43)ncn2)ccc1OC(C)C(=O)O` (racemic) [Example 843, rac-2-(2-Ethoxy-4-{6-[2-(7-fluoro-4-methoxy-2-methyl-indol-1-yl)-ethylamino]-pyrimidin-4-yl}-phenoxy)-propionic acid] were 11 nM and 111 nM.
For the molecule `Cc1c(F)c(F)cc2c1cc(C#N)n2CCNc1cc(-c2cc(C(F)(F)F)c(C(=O)O)s2)ncn1` [Example 857, 5-{6-[2-(2-Cyano-5,6-difluoro-4-methyl-indol-1-yl)-ethylamino]-pyrimidin-4-yl}-3-trifluoromethyl-thiophene-2-carboxylic acid], the IC50 was determined as 58 nM in assay [1] (setting [5]) and 212 nM in assay [2] (setting [6]).
In the case of `Cc1ccc(Cl)c2c1cc(C)n2CCNc1cc(-c2ccc3[nH]c(C(=O)O)cc3c2)ncn1` [compound 201], the IC50 amounted to 232 nM in assay [1] (setting [3]) and 389 nM in assay [2] (setting [4]).
The like results for `CCOc1cc(-c2cc(NCCn3c(C)cc4c(C)c(F)cc(F)c43)ncn2)sc1C(=O)O` [compound 162, 5-{6-[2-(5,7-Difluoro-2,4-dimethyl-indol-1-yl)-ethylamino]-pyrimidin-4-yl}-3-ethoxy-thiophene-2-carboxylic acid] were, in that order, 3 nM and 4 nM.
Consider `CCOc1cc(-c2cc(NCCn3c(C#N)cc4cccc(F)c43)ncn2)ccc1NCC(=O)O` [Example 896, (4-{6-[2-(2-Cyano-7-fluoro-indol-1-yl)-ethylamino]-pyrimidin-4-yl}-2-ethoxy-phenylamino)-acetic acid], for which the IC50 turned out to be 2 nM in assay [1] (setting [5]) and 34 nM in assay [2] (setting [6]).
In the case of `CCc1cc(-c2cc(NCCn3c(C)cc4c5c(cc(Cl)c43)OCO5)ncn2)ccc1C(=O)O` [compound 295, 4-{6-[2-(5-Chloro-7-methyl-[1,3]dioxolo[4,5-e]indol-6-yl)-ethylamino]-pyrimidin-4-yl}-2-ethyl-benzoic acid], the half-inhibitory concentration (IC50) turned out to be 12 nM in assay [1] (setting [3]) and 950 nM in assay [2] (setting [4]).
The like results for `Cc1cc(F)cc2c1cc(C)n2CCNc1cc(-c2cc(F)c(C(=O)O)s2)ncn1` [compound 48] were, in that order, 24 nM and 351 nM.
